Measurements: EP0038117A1, “Methods for preparing anti-hypertensive agents” (UNIVERSITY OF MIAMI, priority 1980, dated 1981)

Test: Stability of aqueous solution on standing under ambient conditions (loss of inhibitory activity)
Type: physicochemical
Details: 1 mg per ml, pH of about 8, standing for as little as 30 minutes

activity of fresh aqueous solution upon standing: substantially less active
Compound: C[C@H](CS)C(=O)N1CCC[C@H]1C(=O)O [SQ14225, D-3-mercapto-2-methylpropanoyl-L-proline]
